# Key:
# [1] = system: B lymphocytes; conditions: cited from earlier work
# [2] = Solubility of sodium cromoglycate in water; format: physicochemical
# Text: Water may be used without additional binder or surfactant.
# [3] = cited from earlier work
smiles,measurement,setting,value
O=C(O)c1cc(=O)c2c(OCC(O)COc3cccc4oc(C(=O)O)cc(=O)c34)cccc2o1 [sodium cromoglycate],effect on IgE synthesis by B lymphocytes,[1],"reduce the ability of IgE-producing cells, the B lymphocytes, to synthesise IgE antibody"
same,freely soluble up to,[2],up to 5%
same,soluble with difficulty up to,[2],up to 10%
same,solubility in acid,[3]; acid medium / gastric fluid,insoluble in an acid medium
same,lipid solubility,[3]; model assumption,lipid insoluble
same,water solubility,[3]; model assumption,water soluble

# From US7258872B1, “Chromone enteric release formulation” (Thornton & Ross Limited, priority 1998, dated 2007)
